We go through 21 molecules from patent US11702419B2, “Heterocyclic compound and use thereof” (Takeda Pharmaceutical Company Limited, priority 2018, dated 2023).

T2 sequence (Q12809 whole entry): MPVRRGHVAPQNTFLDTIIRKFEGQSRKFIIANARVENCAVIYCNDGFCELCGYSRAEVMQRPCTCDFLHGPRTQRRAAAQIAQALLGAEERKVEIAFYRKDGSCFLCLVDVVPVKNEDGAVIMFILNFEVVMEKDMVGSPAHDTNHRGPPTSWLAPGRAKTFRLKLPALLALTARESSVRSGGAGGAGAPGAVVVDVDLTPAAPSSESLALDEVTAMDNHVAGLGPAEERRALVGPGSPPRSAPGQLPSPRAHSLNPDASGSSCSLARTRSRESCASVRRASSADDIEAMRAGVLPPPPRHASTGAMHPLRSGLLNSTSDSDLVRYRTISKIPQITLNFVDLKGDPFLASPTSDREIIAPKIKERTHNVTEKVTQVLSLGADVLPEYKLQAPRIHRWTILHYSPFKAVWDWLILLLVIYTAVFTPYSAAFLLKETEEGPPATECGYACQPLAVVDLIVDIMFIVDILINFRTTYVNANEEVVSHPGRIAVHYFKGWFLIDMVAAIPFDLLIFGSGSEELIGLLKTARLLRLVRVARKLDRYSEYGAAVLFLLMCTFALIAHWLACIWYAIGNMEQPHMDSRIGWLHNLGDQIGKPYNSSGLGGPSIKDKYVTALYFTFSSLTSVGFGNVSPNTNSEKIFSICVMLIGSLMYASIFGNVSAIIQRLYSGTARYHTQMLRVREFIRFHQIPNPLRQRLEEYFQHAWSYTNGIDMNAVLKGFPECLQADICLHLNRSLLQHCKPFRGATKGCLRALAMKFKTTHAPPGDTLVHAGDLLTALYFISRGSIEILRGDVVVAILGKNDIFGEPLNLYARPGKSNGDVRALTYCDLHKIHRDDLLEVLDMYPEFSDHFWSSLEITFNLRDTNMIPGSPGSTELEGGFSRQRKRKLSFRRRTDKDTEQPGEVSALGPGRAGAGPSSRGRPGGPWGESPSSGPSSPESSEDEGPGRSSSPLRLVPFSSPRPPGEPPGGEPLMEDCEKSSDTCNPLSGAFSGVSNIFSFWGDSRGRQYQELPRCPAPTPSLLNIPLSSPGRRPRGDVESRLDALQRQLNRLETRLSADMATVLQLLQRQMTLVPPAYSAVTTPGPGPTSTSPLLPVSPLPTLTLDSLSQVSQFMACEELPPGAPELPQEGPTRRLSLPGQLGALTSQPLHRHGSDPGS

The target in the first data set is T1, NMDA receptor composed of four subunits consisting of two sets of heterodimers of NR1 and NR2B (human GRIN1 and GRIN2B-expressing HEK293 cells) (Homo sapiens, UniProt Q13224).
T1 construct: host or cells: HEK293 (tetracycline-inducible expression)
T1 sequence (Q13224 27-1484, other chains not shown): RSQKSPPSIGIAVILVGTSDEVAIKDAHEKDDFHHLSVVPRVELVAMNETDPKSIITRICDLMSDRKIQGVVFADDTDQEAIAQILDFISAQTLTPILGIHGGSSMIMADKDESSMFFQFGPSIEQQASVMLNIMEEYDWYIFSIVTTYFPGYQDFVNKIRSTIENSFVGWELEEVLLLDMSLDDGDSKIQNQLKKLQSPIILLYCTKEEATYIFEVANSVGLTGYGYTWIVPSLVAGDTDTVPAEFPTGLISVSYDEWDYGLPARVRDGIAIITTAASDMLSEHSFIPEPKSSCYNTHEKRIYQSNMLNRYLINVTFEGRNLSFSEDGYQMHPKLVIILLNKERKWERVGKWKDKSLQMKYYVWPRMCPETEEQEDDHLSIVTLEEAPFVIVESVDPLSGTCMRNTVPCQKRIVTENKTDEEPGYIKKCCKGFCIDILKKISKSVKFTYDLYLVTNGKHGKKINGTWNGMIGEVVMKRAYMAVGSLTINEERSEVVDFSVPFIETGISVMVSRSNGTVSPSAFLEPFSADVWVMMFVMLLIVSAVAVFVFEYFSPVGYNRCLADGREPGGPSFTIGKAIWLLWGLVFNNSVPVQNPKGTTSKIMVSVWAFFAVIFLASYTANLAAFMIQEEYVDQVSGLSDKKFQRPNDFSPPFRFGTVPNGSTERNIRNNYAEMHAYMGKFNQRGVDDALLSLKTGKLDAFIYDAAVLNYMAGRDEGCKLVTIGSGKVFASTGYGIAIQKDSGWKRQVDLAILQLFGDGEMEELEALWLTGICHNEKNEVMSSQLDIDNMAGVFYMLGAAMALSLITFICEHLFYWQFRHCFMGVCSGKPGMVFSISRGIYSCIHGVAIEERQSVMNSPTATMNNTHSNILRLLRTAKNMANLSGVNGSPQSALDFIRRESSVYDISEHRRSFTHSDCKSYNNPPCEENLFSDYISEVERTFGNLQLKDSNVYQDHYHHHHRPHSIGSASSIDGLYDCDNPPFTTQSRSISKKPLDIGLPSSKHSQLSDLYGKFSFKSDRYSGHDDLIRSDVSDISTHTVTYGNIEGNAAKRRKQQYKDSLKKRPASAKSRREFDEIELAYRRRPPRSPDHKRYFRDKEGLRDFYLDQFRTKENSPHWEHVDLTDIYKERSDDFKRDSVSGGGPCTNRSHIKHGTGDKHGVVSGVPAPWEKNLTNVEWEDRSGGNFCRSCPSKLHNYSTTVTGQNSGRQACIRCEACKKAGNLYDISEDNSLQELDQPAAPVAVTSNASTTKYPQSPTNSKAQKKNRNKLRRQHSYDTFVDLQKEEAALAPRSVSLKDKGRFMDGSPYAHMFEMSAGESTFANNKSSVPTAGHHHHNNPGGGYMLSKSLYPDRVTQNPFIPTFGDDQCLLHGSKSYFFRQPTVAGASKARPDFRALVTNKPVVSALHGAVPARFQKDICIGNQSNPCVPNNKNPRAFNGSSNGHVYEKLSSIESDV
The experiment in a line: NR2B Ca2+ influx assay. As to conditions: 10 μM compound, glutamic acid/glycine-induced Ca2+ influx, FLIPR, read-out: inhibitory rate (10 μM compound concentration). Format: cell-based. The procedure, abridged: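 HEK293 cells expressing human GRIN1/GRIN2B were induced with tetracycline (diluted to 2 µg/mL) for 2 h, then Fluo-4AM loaded (2.5 µM) in pH 7.2 buffer with 1.8 mM CaCl2. Compound at 10 µM final was preincubated 15 min at room temperature, then challenged with buffer containing 30 µM glutamate/30 µM glycine. FLIPR fluorescence was read every 3 s for 5 min, with % inhibition from cumulative signal and agonist-free wells set as 100%.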
On to `O=C(NCc1cnn2ncccc12)c1cnc(OC(F)F)c(F)c1` [Example 6, 6-(difluoromethoxy)-5-fluoro-N-(pyrazolo[1,5-b]pyridazin-3-ylmethyl)nicotinamide], for which the inhibition at 10 µM came to 97%.

On to `O=C(NCc1cnn2ccncc12)c1ccc(OC(F)(F)F)c(F)c1` [Example 16, 3-fluoro-N-(pyrazolo[1,5-a]pyrazin-3-ylmethyl)-4-(trifluoromethoxy)benzamide], for which the inhibition at 10 µM came to 97%.

Consider `Cn1ccn2ncc(CNC(=O)c3cnc(OC(F)F)c(Cl)c3)c12` [Example 59, 5-chloro-6-(difluoromethoxy)-N-((1-methyl-1H-imidazo[1,2-b]pyrazol-7-yl)methyl)nicotinamide], for which the inhibition at 10 µM came to 97%.

Turning to `Cc1nn2ncc(CNC(=O)c3ccc(OC(F)(F)F)c(F)c3)c2n1C` [Example 71, N-[(1,2-dimethyl-1H-pyrazolo[1,5-b][1,2,4]triazol-7-yl)methyl]-3-fluoro-4-(trifluoromethoxy)benzamide], the inhibition at 10 µM was 97%.

Take `COCc1nn2ncccc2c1CNC(=O)c1cnc(OC(F)F)c(F)c1` [Example 31, 6-(difluoromethoxy)-5-fIuoro-N-((2-(methoxymethyl)pyrazolo[1,5-b]pyridazin-3-yl)methyl)nicotinamide]: the inhibition at 10 µM was 84%.

With `O=C(NCc1nnn2ccccc12)c1ccc(OC(F)F)c(Cl)c1` [Example 34, 3-chloro-4-(difluoromethoxy)-N-([1,2,3]triazolo[1,5-a]pyridin-3-ylmethyl)benzamide], the inhibition at 10 µM is 96%.

As for `O=C(NCc1nnn2ccncc12)c1ccc(OC(F)(F)F)c(F)c1` [Example 42, 3-fluoro-N-([1,2,3]triazolo[1,5-a]pyrazin-3-ylmethyl)-4-(trifluoromethoxy)benzamide], the inhibition at 10 µM came out at 94%.

Turning to `Cc1cnn2ncc(CNC(=O)c3ccc(OC(F)(F)F)c(F)c3)c2c1` [Example 21, 3-fluoro-N-((5-methylpyrazolo[1,5-b]pyridazin-3-yl)methyl)-4-(trifluoromethoxy)benzamide], the inhibition at 10 µM turned out to be 97%.

`O=C(NCc1c(C(F)F)nn2ncccc12)c1cnc(OC(F)F)c(F)c1` [Example 43, 6-(difluoromethoxy)-N-((2-(difluoromethyl)pyrazolo[1,5-b]pyridazin-3-yl)methyl)-5-fluoronicotinamide]: the inhibition at 10 µM is 95%.

Take `O=C(NCc1cnn2ccn(CC(F)F)c12)c1ccc(OC(F)(F)F)c(F)c1` [Example 81, N-{[1-(2,2-difluoroethyl)-1H-imidazo[1,2-b]pyrazol-7-yl]methyl}-3-fluoro-4-(trifluoromethoxy)benzamide]: the inhibition at 10 µM amounted to 96%.

With `O=C(NCc1nnn2ncccc12)c1ccc(OC(F)F)c(Cl)c1` [Example 30, 3-chloro-4-(difluoromethoxy)-N-([1,2,3]triazolo[1,5-b]pyridazin-3-ylmethyl)benzamide], the inhibition at 10 µM stood at 97%.

On to `O=C(NCc1nnn2cc(F)ccc12)c1ccc(OC(F)(F)F)cc1` [Example 1, N-((6-fluoro[1,2,3]triazolo[1,5-a]pyridin-3-yl)methyl)-4-(trifluoromethoxy)benzamide], for which the inhibition at 10 µM amounted to 94%.

For `Cc1cnn2nnc(CNC(=O)c3cnc(OC(F)F)c(F)c3)c2c1` [Example 50, 6-(difluoromethoxy)-5-fluoro-N-((5-methyl[1,2,3]triazolo[1,5-b]pyridazin-3-yl)methyl)nicotinamide], the inhibition at 10 µM came to 97%.

Regarding `Cc1nn2ncccc2c1CNC(=O)c1cnc(OC(F)F)c(F)c1` [Example 17, 6-(difluoromethoxy)-5-fluoro-N-((2-methylpyrazolo[1,5-b]pyridazin-3-yl)methyl)nicotinamide], the inhibition at 10 µM stood at 94%.

Consider `O=C(NCc1nnn2ccccc12)c1cnc(OC(F)F)c(F)c1` [Example 14, 6-(difluoromethoxy)-5-fluoro-N-([1,2,3]triazolo[1,5-a]pyridin-3-ylmethyl)nicotinamide], for which the inhibition at 10 µM is 94%.

As for `Cc1nn2cnccc2c1CNC(=O)c1ccc(OC(F)(F)F)c(F)c1` [Example 48, 3-fluoro-N-((2-methylpyrazolo[1,5-c]pyrimidin-3-yl)methyl)-4-(trifluoromethoxy)benzamide], the inhibition at 10 µM came out at 90%.

Turning to `O=C(NCc1nnn2ncccc12)c1ccc(OC(F)(F)F)cc1` [Example 19, N-([1,2,3]triazolo[1,5-b]pyridazin-3-ylmethyl)-4-(trifluoromethoxy)benzamide], the inhibition at 10 µM came out at 96%.

For the molecule `Cc1cnn2nnc(CNC(=O)c3ccc(OC(F)(F)F)c(F)c3)c2c1` [Example 49, 3-fluoro-N-((5-methyl[1,2,3]triazolo[1,5-b]pyridazin-3-yl)methyl)-4-(trifluoromethoxy)benzamide], the inhibition at 10 µM turned out to be 98%.

On to `CCc1nn2ncccc2c1CNC(=O)c1ccc(OC(F)F)c(F)c1` [Example 27, 4-(difluoromethoxy)-N-((2-ethylpyrazolo[1,5-b]pyridazin-3-yl)methyl)-3-fluorobenzamide], for which the inhibition at 10 µM was determined as 92%.

On to `Cc1nn2ccn(C)c2c1CNC(=O)c1cnc(OC(F)F)c(F)c1` [Example 73, 6-(difluoromethoxy)-N-[(1,6-dimethyl-1H-imidazo[1,2-b]pyrazol-7-yl)methyl]-5-fluoropyridine-3-carboxamide], for which the inhibition at 10 µM was 93%.

For the molecule `COc1c(F)cc(C(=O)NCc2cnn3ncccc23)cc1F` [Example 12, 3,5-difluoro-4-methoxy-N-(pyrazolo[1,5-b]pyridazin-3-ylmethyl)benzamide], the inhibition at 10 µM is 97%.

The next data set has as its target T2, hERG channel (Homo sapiens, UniProt Q12809).
T2 construct: Medicine
Nature of the data set: hERG manual patch-clamp assay. Format: cell-based. As to conditions: 10 μmol/L test solution; hERG peak tail current 3 to 5 min after application, HEK293 cells. As to the method: hERG Manual Patch-Clamp Assay
In order to confirm “hERG channel inhibitory activity” which the compound of the present invention has, the hERG channel inhibitory activity was evaluated using human Ether-a-go-go-Related Gene (hERG)-expressing human embryonic kidney 293 (HEK293) cells.
hERG-stably expressing HEK293 cells were purchased from University of Wisconsin-Madison Dept. Medicine. The cells were cultured in a medium prepared by adding 10% FBS (fetal bovine serum, Life Technologies Corporation), sodium pyruvate (1 mmol/L; Life Technologies Corporation), MEM Non-Essential Amino Acid (1×; Life Technologies Corporation), 100 units/mL penicillin, 100 μg/mL streptomycin (Life Technologies Corporation) and 400 μg/mL G 418 (Geneticin, Sigma-Aldrich Co. LLC.) to Minimum Essential Medium (Sigma-Aldrich Co. LLC.) at 37° C., 5% CO2. The cultured cells were detached, suspended in a medium, and seeded on a cover glass, cultured, and used in a patch-clamp assay. […]
The hERG current passing through whole cell membranes under voltage-clamp was recorded by whole-cell patch-clamp method. […] During measurement, the extracellular fluid temperature in the chamber was set at 20 to 25° C., and the hERG current was measured using patch-clamp amplifier (Axopatch-200B, Molecular Devices, LLC). The obtained electrical signal was recorded on a computer via patch-clamp record and analysis software (pCLAMP 10, Molecular Devices, LLC). The absolute value of the hERG current value (peak tail current) was calculated based on the current value when depolarizing pulse at −50 mV, 110 msec was given, and the change (inhibitory rate) in the hERG current value (peak tail current) 3 to 5 min after the application of the 10 μmol/L test solution relative to before the application was calculated.
Background: Block of hERG is tested as a sign of cardiac risk.
For `O=C(NCc1cnn2ncccc12)c1cnc(OC(F)F)c(F)c1` [Example 6, 6-(difluoromethoxy)-5-fluoro-N-(pyrazolo[1,5-b]pyridazin-3-ylmethyl)nicotinamide], the “inhibitory rate (10 μM compound concentration)” value was 16.5.

Another data set has as its system NMDA receptor containing the NR2B subunit (hippocampus). The experiment in a line: [3H]MK-801 binding test in vivo. More on the design: species or system Sprague Dawley rats. As to conditions: [3H]MK-801 binding inhibitory rate, rat hippocampus. As to the method:
[^3H]MK-801 Binding Test In Vivo
In order to confirm “functional antagonistic action on an NMDA receptor containing the NR2B subunit in vivo” which the compound of the present invention has, binding test was performed using tritium-labeled form of MK-801 ((5R,10S)-5-methyl-10,11-dihydro-5H-5,10-epiminodibenzo[a,d][7]annulene) ([^3H]MK-801), which is a compound capable of binding to the opening site of the NMDA receptor.
The example compound (3 mg/kg/2 mL, 0.5% MC water) or vehicle ([…], 0.5% MC water) was orally administered (p.o.) to Sprague Dawley rats (body weight 180-260 g). After a certain time (around after time-to maximum blood concentration), [^3H]MK-801 (20 μCi/kg/mL, Muromachi Kikai) was intravenously administered. After 10 min, the rats were euthanized by decapitation, and subjected to craniotomy, and the hippocampus was collected. The collected hippocampus was homogenized in 30 volumes (30 mL per 1 g tissue) ice-cooled 20 mM Hepes (pH7.5, Hampton Research) using a homogenizer (T10 basic Ultra-Turrax) for 10 sec. […] The filter was washed four times with ice-cooled saline (5 mL, Otsuka Pharmaceutical), put into a scintillation vial, and then 10 mL of liquid scintillator A (FUJIFILM Wako Pure Chemical Corporation) was added thereto, and the residual radioactivity was counted using liquid scintillation counter (ALOKA LSC-6100). Separately, the residual radioactivity in 100 μL of the homogenate before the filtration was counted in the same way. The value of [the residual radioactivity in the filter/the residual radioactivity in the 100 μL of the homogenate] was calculated as a [^3H]MK-801 binding rate to the NMDA receptor expressing in each individual hippocampus tissue. […] The difference between the percentage of [^3H]MK-801 binding rate in the group orally administered with the example compound and that in the vehicle control group (100%) was analyzed as [^3H]MK-801 binding inhibitory rate by the example compound.
For `O=C(NCc1cnn2ncccc12)c1cnc(OC(F)F)c(F)c1` [Example 6, 6-(difluoromethoxy)-5-fluoro-N-(pyrazolo[1,5-b]pyridazin-3-ylmethyl)nicotinamide], the “inhibitory rate (3 mg/kg, p.o.)” value came to 33%.
